Entries after “also recorded” stand apart in the source; their conditions may differ.
Legend:
[1] = In vivo PET/MRI imaging of the lymph node system after footpad injection; parameters: species or system mouse (C57BL/6); conditions: mouse, 6 hours post injection
Protocol: In vivo PET/MRI imaging of the lymph node (LN) system was carried out using a preclinical nanoScan® PET•MRI scanner with 1 T magnetic field (Mediso Ltd, H-1047, Budapest, Hungary), utilising ^18F-labelled CoxFe3-xO4@NaYF4(Yb, Er)-BP-PEG (10 K) or ^18F-labelled Fe3O4@NaYF4(Yb, Tm)-BP-PEG (2 K) NPIAs as probes. After injection of 20 μL of [^18F]-fluoride-labelled CoxFe3-xO4@NaYF4(Yb, Er)-BP-PEG solution containing 6.3 MBq radioactivity and 20 μg Fe into the rear right foot pad of a mouse (C57BL/6, female, 6-7 weeks old, 20 g), coregistered PET and MRI images were recorded 6 hours post injection. The most prominent signal was from the popliteal LN, which is the nearest draining LN from the injection point, and the next most prominent signal was from the medial iliac LN (FIG. 5a, 5c & 5d).
To further explore the potential value of these NPIAs, a more detailed lymph node study by PET/MRI imaging was undertaken, investigating the popliteal LN in response to an acute inflammatory stimulus in the foot. A solution of ^18F-labelled Fe3O4@NaYF4(Yb, Tm)-BP-PEG (20 μL, 4.5 MBq, 20 μg Fe) was injected into each of the two rear footpads of a female C57BL/6 mouse in which only the right leg was inflamed. […] A control experiment was carried out with [^18F]-fluoride but without NPs Fe3O4@NaYF4(Yb, Tm)-BP-PEG, under the same conditions. […]

[2] = Ex vivo fluorescent imaging of excised popliteal lymph nodes under 980 nm laser; type: in vivo, mouse (C57BL/6); conditions: multi-photon laser scanning microscope
Protocol: To further explore the potential value of these NPIAs, a more detailed lymph node study by PET/MRI imaging was undertaken, investigating the popliteal LN in response to an acute inflammatory stimulus in the foot. A solution of ^18F-labelled Fe3O4@NaYF4(Yb, Tm)-BP-PEG (20 μL, 4.5 MBq, 20 μg Fe) was injected into each of the two rear footpads of a female C57BL/6 mouse in which only the right leg was inflamed. […] A control experiment was carried out with [^18F]-fluoride but without NPs Fe3O4@NaYF4(Yb, Tm)-BP-PEG, under the same conditions. […] By MRI scanning prior to injection of the labellend NPs, no contrast difference was seen on MR images between the normal LN and the inflamed one. The popliteal lymph nodes on the inflamed side were dissected and viewed, together with the adjacent fatty tissue, with a Femtonics (Budapest, Hungary) Fem2D in vivo multi-photon laser scanning microscope under excitation of a 980 nm laser. […] Fluorescent NPIAs were also found inside cells of adjacent fat tissue of the inflamed popliteal LN.

[^18F]-fluoride
lymph node signal on PET (and MRI) images [1]: no contrast in lymph nodes; also recorded: did not show any signal at the lymph nodes | fluorescence of excised inflamed popliteal lymph node [2]: faint granular fluorescence
